Experimental data from patent US4771068A, “Mitomycin derivatives having anti-tumor and antibacterial utility” (priority 1985, dated 1988).
≈ marks a conversion by molar mass, not a printed value.

Legend:
[1] = tested on: Sarcoma 180 solid tumour; test: animal or person; settings: for CIc: CI of test compound divided by CI of mitomycin C as control in the same condition; for ED50: Mus musculus, Sarcoma-180, iv, 168 h; for CI (LD50/ED50): chemotherapeutic index
Source text: CIc : Value given by division of CI of each test compound by CI of
determination of antitumour activity of the test compound. A CIc
5×10^6 cells of Sarcoma 180 solid tumour were intraperitoneally implanted into ddY mice. 7 days later, ascites cells were sampled. The cells were washed once with a sterilized physiological sodium chloride solution and were used to prepare a cell suspension containing 5×10^7 cells per ml with a sterilized physiological sodium chloride solution. On each occasion, 0.1 ml of the cell suspension was subcutaneously implanted into the right axilla of a male mouse (ddY strain; body weight 20±2 g).
The anti-tumour activity was determined in the following manner. 7 days after the implantation, the major axis (a) and the minor axis (b) of the tumour were measured to calculate a value of "a×b^2 /2" which corresponds to the volume of the tumour. The anti-tumour activity was expressed by the ratio (T/C) of the volume (T) of the tumours of the group of animals administered with the test compound to the corresponding volume (C) of tumours of the untreated animals.
On graph paper, T/C was indicated by an arithmetic scale on the longitudinal axis and the administered amount of the test compound was indicated by a logarithmic scale on the lateral axis.

[2] = tested on: peripheral leucocytes; test: Effect on the peripheral leucocytes number; type: in vivo, mouse (ddY strain); settings: minimum dose reducing peripheral leucocytes number to 4000/mm^3; tumour-carrying ddY mice, intraperitoneal, 4 days after administration
Description: WBC4000 : Minimum dose of a test compound which reduces the
peripheral leucocytes number to 4000/mm^3.
Sarcoma 180 solid tumour cells (5×10^6) were subcutaneously implanted into the right axilla of each mouse (body weight 20±2 g) of a group consisting of 5 male mice (ddY strain). 24 hours after implantation,a test compound was intraperitoneally administered to each animal. 4 days after the administration, blood (each 0.02 ml) was collected from the suborbital plexus vein of each tumour-carrying animal. The collected sample of blood was dispersed in 9.98 ml of Cell-Kit Seven solution. One drop of saponin solution was added to the sample to dissolve erythrocytes and then a microcell counter was used to count the number of leucocytes. […] The relationship between the number of peripheral leucocytes and the dose of the test compound was plotted and the dose (i.e., WBC4000) corresponding to 4000 peripheral leucocytes/mm^3 (about half the number of leucocytes of normal mice) was obtained.

[3] = tested on: Streptococcus faecalis ATCC 10541; test: Antibacterial activity (minimum growth inhibitory concentration), agar dilution method; type: cell-based; settings: Enterococcus faecalis, ATCC10541; Streptococcus faecalis ATCC 10541, pH 7.0, agar dilution method; read-out: minimum growth inhibitory concentration, SF
Description: (§1) Antibacterial activities of Compounds (I) against various bacteria are shown by the minimum growth inhibitory concentration (μg/ml) in Table 3. The minimum growth inhibitory concentration was measured at pH 7.0 according to the agar dilution method. In the table, bacteria are indicated by the following letters.
SF: Streptococcus faecalis ATCC 10541

[4] = tested on: Staphylococcus aureus ATCC 6538P; test: as above; type: cell-based; settings: ATCC6538P, pH 7.0, agar dilution method, read-out: minimum growth inhibitory concentration, SA
Description: as §1
SA: Staphylococcus aureus ATCC 6538P

[5] = tested on: Bacillus subtilis 10707; test: as above; type: cell-based; settings: Bacillus subtilis 10707, pH 7.0, agar dilution method; read-out: minimum growth inhibitory concentration, BS
Description: as §1
BS: Bacillus subtilis 10707

[6] = tested on: Proteus vulgalis ATCC 6897; test: as above; type: cell-based; settings: pH 7, read-out: minimum growth inhibitory concentration, PV
Description: as §1
PV: Proteus vulgalis ATCC 6897

[7] = tested on: Klebsiella pneumoniae ATCC 10031; test: as above; type: cell-based; settings: ATCC10031; Klebsiella pneumoniae ATCC 10031, pH 7.0, agar dilution method; read-out: minimum growth inhibitory concentration, KP
Description: as §1
KP: Klebsiella pneumoniae ATCC 10031

[8] = Acute toxicity; settings: mouse, in vivo, ip; ddY mice, intraperitoneally once, 14 days observation
Description: Each animal of the test group consisting of 5 ddY mice was administered intraperitoneally once with a test compound. […] The LD50 was determined by Beherns Kaerber's method.

Question: For `CO[C@@]12[C@H](COC(N)=O)C3=C(C(=O)C(C)=C(N)C3=O)N1C[C@@H]1N[C@@H]12` [MMC, mitomycin C, reference compound], which CIc [1] is on record?
Answer: Its CIc is 1.

Question: And the WBC4000 [2]?
Answer: Its WBC4000 is 2.4 to 6.1 mg/kg.

Question: Which MIC [3] does the source give for `C=C1C2=C(C(=O)C(C)=C(NCCSC(=O)c3ccccc3)C2=O)N2C[C@H]3[C@H](N3C)[C@]12O` (some centres unmarked) [Compound 15] here?
Answer: The MIC was greater than 100 µg/mL.

Question: What about the MIC [4] of the same compound?
Answer: The MIC was 25 µg/mL (≈ 57.1 µM).

Question: What about the MIC [5] of the same compound?
Answer: The MIC was 1.6 µg/mL (≈ 3.66 µM).

Question: What about the MIC [6] of the same compound?
Answer: Its MIC is 25 µg/mL (≈ 57.1 µM).

Question: And the MIC [7]?
Answer: Its MIC is 50 µg/mL (≈ 114 µM).

Question: What about the CIc [1] of the same compound?
Answer: Its CIc is no less than 0.74.

Question: What about the ED50 [1] of the same compound?
Answer: The ED50 was 27.5 mg/kg.

Question: And the “CI (LD50/ED50)” value [1]?
Answer: Its value is no less than 1.8.

Question: And the LD50 at 336 h [8]?
Answer: The LD50 at 336 h was no less than 50 mg/kg.

Question: And the WBC4000 [2]?
Answer: The WBC4000 was 27.5 mg/kg.

Question: With `COc1ccc(C(=O)SCCNC2=C(C)C(=O)C3=C(C2=O)[C@@H](COC(N)=O)[C@@]2(OC)[C@H]4N[C@H]4CN32)cc1` [Compound 23] as the compound, how does the MIC [3] read?
Answer: The MIC was 0.16 µg/mL (≈ 0.303 µM).

Question: And the MIC [4]?
Answer: The MIC was less than 0.02 µg/mL.

Question: What about the MIC [5] of the same compound?
Answer: Its MIC is less than 0.02 µg/mL.

Question: And the MIC [6]?
Answer: Its MIC is 10 µg/mL (≈ 18.9 µM).

Question: And the MIC [7]?
Answer: Its MIC is 5 µg/mL (≈ 9.46 µM).

Question: And the CIc [1]?
Answer: The CIc was 0.81.

Question: What about the ED50 [1] of the same compound?
Answer: Its ED50 is 2.5 mg/kg.

Question: What about the “CI (LD50/ED50)” value [1] of the same compound?
Answer: Its value is 2.5.

Question: And the LD50 at 336 h [8]?
Answer: The LD50 at 336 h was 6.3 mg/kg.

Question: And the WBC4000 [2]?
Answer: Its WBC4000 is 5 mg/kg.

Question: Which results are given for `CCC(=O)SCCNC1=C(C)C(=O)C2=C(C1=O)[C@H](COC(N)=O)[C@@]1(O)[C@@H]3[C@H](CN21)N3C` (some centres unmarked) [Compound 6]?
Answer: MIC [3]: 13 µg/mL (≈ 28.9 µM); MIC [4]: 13 µg/mL (≈ 28.9 µM); MIC [5]: 0.78 µg/mL (≈ 1.73 µM); MIC [6]: 100 µg/mL (≈ 222 µM); MIC [7]: 25 µg/mL (≈ 55.5 µM)

Question: What does the source list for `CO[C@@]12[C@H](COC(N)=O)C3=C(C(=O)C(C)=C(NCCSC(=O)c4ccc(F)cc4)C3=O)N1C[C@@H]1N[C@@H]12` [Compound 18]?
Answer: MIC [3]: 0.16 µg/mL (≈ 0.31 µM); MIC [4]: < 0.02 µg/mL; MIC [5]: < 0.02 µg/mL; MIC [6]: 10 µg/mL (≈ 19.4 µM); MIC [7]: 5 µg/mL (≈ 9.68 µM); CIc [1]: 1.2; ED50 [1]: 1.6 mg/kg; CI (LD50/ED50) [1]: 3.8; LD50 at 336 h [8]: 6 mg/kg; WBC4000 [2]: 5 mg/kg

Question: With `CC1=C(NCCSC(=O)c2ccccc2)C(=O)C2=C(C1=O)N1C[C@H]3[C@H](N3C)[C@]1(O)[C@H]2COC(N)=O` (some centres unmarked) [Compound 14] as the compound, how does the MIC [3] read?
Answer: Its MIC is 50 µg/mL (≈ 100 µM).

Question: What about the MIC [4] of the same compound?
Answer: Its MIC is greater than 100 µg/mL.

Question: What about the MIC [5] of the same compound?
Answer: Its MIC is 0.39 µg/mL (≈ 0.782 µM).

Question: And the MIC [7]?
Answer: The MIC was greater than 100 µg/mL.

Question: For `CCC(=O)SCCNC1=C(C)C(=O)C2=C(C1=O)[C@@H](COC(N)=O)[C@@]1(OC)[C@H]3N[C@H]3CN21` [Compound 5], which MIC [3] is on record?
Answer: The MIC was less than 0.02 µg/mL.

Question: What about the MIC [4] of the same compound?
Answer: The MIC was less than 0.02 µg/mL.

Question: And the MIC [5]?
Answer: Its MIC is less than 0.02 µg/mL.

Question: What about the MIC [6] of the same compound?
Answer: The MIC was 1.3 µg/mL (≈ 2.89 µM).

Question: And the MIC [7]?
Answer: The MIC was 0.31 µg/mL (≈ 0.688 µM).

Question: And the CIc [1]?
Answer: The CIc was 0.59.

Question: And the ED50 [1]?
Answer: The ED50 was 5 mg/kg.

Question: And the “CI (LD50/ED50)” value [1]?
Answer: Its value is 0.94.

Question: What about the LD50 at 336 h [8] of the same compound?
Answer: The LD50 at 336 h was 4.7 mg/kg.

Question: What about the WBC4000 [2] of the same compound?
Answer: Its WBC4000 is greater than 5 mg/kg.

Question: Which results are given for `CO[C@@]12[C@H](COC(N)=O)C3=C(C(=O)C(C)=C(NCCSC(=O)c4ccccc4)C3=O)N1C[C@H]1[C@@H]2N1C` (some centres unmarked) [Compound 16]?
Answer: MIC [3]: 0.63 µg/mL (≈ 1.23 µM); MIC [4]: 0.16 µg/mL (≈ 0.312 µM); MIC [5]: 0.078 µg/mL (≈ 0.152 µM); MIC [6]: > 40 µg/mL; MIC [7]: 10 µg/mL (≈ 19.5 µM)

Question: What does the source list for `CC1=C(NCCSC(=O)c2ccc(F)cc2)C(=O)C2=C(C1=O)N1C[C@H]3[C@H](N3C)[C@]1(O)[C@H]2COC(N)=O` (some centres unmarked) [Compound 19, 7-N-[2-(4-fluorobenzoylthio)ethyl]mitomycin D]?
Answer: MIC [3]: 100 µg/mL (≈ 194 µM); MIC [4]: 6.3 µg/mL (≈ 12.2 µM); MIC [5]: 1.6 µg/mL (≈ 3.1 µM); CIc [1]: 0.89; ED50 [1]: 5.6 mg/kg; CI (LD50/ED50) [1]: 2.7; LD50 at 336 h [8]: 15 mg/kg; WBC4000 [2]: 19.1 mg/kg

Question: For `CO[C@@]12[C@H](COC(N)=O)C3=C(C(=O)C(C)=C(NCCCCSC(C)=S)C3=O)N1C[C@@H]1N[C@@H]12` [Compound 30], which MIC [3] is on record?
Answer: Its MIC is 0.31 µg/mL (≈ 0.645 µM).

Question: And the MIC [4]?
Answer: The MIC was 0.31 µg/mL (≈ 0.645 µM).

Question: And the MIC [5]?
Answer: The MIC was 0.31 µg/mL (≈ 0.645 µM).

Question: And the MIC [6]?
Answer: Its MIC is 5 µg/mL (≈ 10.4 µM).

Question: What about the MIC [7] of the same compound?
Answer: Its MIC is 1.3 µg/mL (≈ 2.7 µM).

Question: What about the CIc [1] of the same compound?
Answer: Its CIc is greater than 1.1.

Question: And the ED50 [1]?
Answer: The ED50 was 37.7 mg/kg.

Question: What about the “CI (LD50/ED50)” value [1] of the same compound?
Answer: The value was greater than 2.7.

Question: What about the LD50 at 336 h [8] of the same compound?
Answer: The LD50 at 336 h was greater than 100 mg/kg.

Question: What about the WBC4000 [2] of the same compound?
Answer: The WBC4000 was 58.1 mg/kg.
